Results from the NIST ThermoML archive (doi:10.1016/j.jct.2017.07.016).

Experiment: xn = mol fraction of the nth substance listed
Conditions: 96.7 kPa, Liquid; for viscosity: Capillary tube (Ostwald / Ubbelohde) method; for mass density: Vibrating tube method

CCCCCCn1cc[n+](C)c1.[Cl-] [1-hexyl-3-methylimidazolium chloride] + CC(=O)N(C)C
Conditions | mass density [kg/m3] | viscosity [mPa·s]
303.15 K, x1 = 0.155 | 967.16 | 3.756
303.15 K, x1 = 0.301 | 989.75 | 14.88
303.15 K, x1 = 0.392 | 999.94 | 35.44
303.15 K, x1 = 0.503 | 1009.66 | 92.11
303.15 K, x1 = 0.63 | 1018.78 | 295.88
303.15 K, x1 = 0.794 | 1027.67 | 917.88
303.15 K, x1 = 0.887 | 1032.11 | 2891.3
303.15 K, x1 = 1 | 1036.07 | 5718.5
308.15 K, x1 = 0.155 | 962.92 | 3.352
308.15 K, x1 = 0.301 | 986.11 | 12.57
308.15 K, x1 = 0.392 | 996.46 | 28.6
308.15 K, x1 = 0.503 | 1006.34 | 70.17
308.15 K, x1 = 0.63 | 1015.69 | 212.96
308.15 K, x1 = 0.794 | 1024.64 | 624.84
308.15 K, x1 = 0.887 | 1029.11 | 1853.1
308.15 K, x1 = 1 | 1033.22 | 3430.8
313.15 K, x1 = 0.155 | 958.82 | 3.026
313.15 K, x1 = 0.301 | 982.47 | 10.74
313.15 K, x1 = 0.392 | 992.99 | 23.52
313.15 K, x1 = 0.503 | 1003.03 | 55.61
313.15 K, x1 = 0.63 | 1012.58 | 158.14
313.15 K, x1 = 0.794 | 1021.62 | 440.38
313.15 K, x1 = 0.887 | 1026.14 | 1212.9
313.15 K, x1 = 1 | 1030.38 | 2146.1
318.15 K, x1 = 0.155 | 954.87 | 2.739
318.15 K, x1 = 0.301 | 978.83 | 9.242
318.15 K, x1 = 0.392 | 989.54 | 19.54
318.15 K, x1 = 0.503 | 999.74 | 44.26
318.15 K, x1 = 0.63 | 1009.45 | 119.42
318.15 K, x1 = 0.794 | 1018.61 | 313.65
318.15 K, x1 = 0.887 | 1023.19 | 814.85
318.15 K, x1 = 1 | 1027.56 | 1390.4
323.15 K, x1 = 0.155 | 951 | 2.493
323.15 K, x1 = 0.301 | 975.21 | 8.018
323.15 K, x1 = 0.392 | 986.09 | 16.46
323.15 K, x1 = 0.503 | 996.46 | 35.84
323.15 K, x1 = 0.63 | 1006.33 | 91.95
323.15 K, x1 = 0.794 | 1015.58 | 229.39
323.15 K, x1 = 0.887 | 1020.2 | 563.41
323.15 K, x1 = 1 | 1024.75 | 928.1
328.15 K, x1 = 0.155 | – | 2.28
328.15 K, x1 = 0.301 | – | 7.038
328.15 K, x1 = 0.392 | – | 14
328.15 K, x1 = 0.503 | – | 29.41
328.15 K, x1 = 0.63 | – | 71.92
328.15 K, x1 = 0.794 | – | 171.63
328.15 K, x1 = 0.887 | – | 400.32
328.15 K, x1 = 1 | – | 638.79
